From the NIST ThermoML archive (doi:10.1021/je060203o)
± gives the expanded uncertainty stated by the source.

Settings: Liquid; for mass density: Vibrating tube method; for speed of sound: Pulse-echo method

CCCn1cc[n+](C)c1.O=S(=O)([N-]S(=O)(=O)C(F)(F)F)C(F)(F)F
mass density (298.15 K, 100 kPa): 1475.7 ± 2.5 kg/m3 | speed of sound (298.15 K, 500 kPa): 1236.4 ± 3.1 m/s | mass density (298.15 K, 1830 kPa): 1476.98 ± 2.6 kg/m3 | speed of sound (298.15 K, 3500 kPa): 1246.5 ± 3.1 m/s | speed of sound (298.15 K, 7000 kPa): 1258.2 ± 3.1 m/s | speed of sound (298.15 K, 10000 kPa): 1268 ± 3.1 m/s | mass density (298.15 K, 10020 kPa): 1483.13 ± 2.8 kg/m3 | speed of sound (298.15 K, 13500 kPa): 1279.2 ± 3.1 m/s | mass density (298.15 K, 14980 kPa): 1486.69 ± 3 kg/m3 | speed of sound (298.15 K, 17000 kPa): 1290 ± 3.1 m/s | mass density (298.15 K, 19750 kPa): 1490.06 ± 3.1 kg/m3 | speed of sound (298.15 K, 20000 kPa): 1299.2 ± 3.1 m/s | mass density (298.15 K, 25860 kPa): 1494.22 ± 3.2 kg/m3 | speed of sound (298.15 K, 30000 kPa): 1329.2 ± 3.2 m/s | mass density (298.15 K, 31480 kPa): 1497.95 ± 3.4 kg/m3 | mass density (298.15 K, 37770 kPa): 1502.01 ± 3.6 kg/m3 | speed of sound (298.15 K, 40000 kPa): 1357.5 ± 3.2 m/s | mass density (298.15 K, 44170 kPa): 1506.01 ± 3.8 kg/m3 | speed of sound (298.15 K, 50000 kPa): 1384.5 ± 3.2 m/s | mass density (298.15 K, 50750 kPa): 1509.97 ± 4 kg/m3 | mass density (298.15 K, 59590 kPa): 1515.1 ± 4.2 kg/m3 | speed of sound (298.15 K, 60000 kPa): 1410.3 ± 3.2 m/s | speed of sound (298.15 K, 70000 kPa): 1435.1 ± 3.2 m/s | speed of sound (298.15 K, 80000 kPa): 1459 ± 3.2 m/s | speed of sound (298.15 K, 90000 kPa): 1482.1 ± 3.2 m/s | speed of sound (298.15 K, 100000 kPa): 1504.5 ± 3.2 m/s | speed of sound (298.15 K, 112500 kPa): 1531.7 ± 3.2 m/s | speed of sound (298.15 K, 125000 kPa): 1557.6 ± 3.2 m/s | speed of sound (298.15 K, 137510 kPa): 1582.8 ± 3.2 m/s | speed of sound (298.15 K, 150000 kPa): 1606 ± 3.2 m/s | speed of sound (298.15 K, 162500 kPa): 1629.6 ± 3.2 m/s | speed of sound (298.15 K, 175000 kPa): 1652.5 ± 3.2 m/s | speed of sound (298.15 K, 187500 kPa): 1674.5 ± 3.2 m/s | speed of sound (298.15 K, 200000 kPa): 1695.9 ± 3.2 m/s | mass density (299.15 K, 100 kPa): 1474.62 ± 2.5 kg/m3 | mass density (299.15 K, 1830 kPa): 1475.87 ± 2.6 kg/m3 | mass density (299.15 K, 10020 kPa): 1482.12 ± 2.8 kg/m3 | mass density (299.15 K, 14980 kPa): 1485.68 ± 3 kg/m3 | mass density (299.15 K, 19750 kPa): 1489.01 ± 3.1 kg/m3 | mass density (299.15 K, 25860 kPa): 1493.18 ± 3.2 kg/m3 | mass density (299.15 K, 31480 kPa): 1496.89 ± 3.4 kg/m3 | mass density (299.15 K, 37770 kPa): 1500.95 ± 3.6 kg/m3 | mass density (299.15 K, 44170 kPa): 1504.95 ± 3.8 kg/m3 | mass density (299.15 K, 50750 kPa): 1509.07 ± 4 kg/m3 | mass density (299.15 K, 59590 kPa): 1514.22 ± 4.2 kg/m3 | mass density (300.15 K, 100 kPa): 1473.66 ± 2.5 kg/m3 | mass density (300.15 K, 1830 kPa): 1474.94 ± 2.6 kg/m3 | mass density (300.15 K, 10020 kPa): 1481.1 ± 2.8 kg/m3 | mass density (300.15 K, 14980 kPa): 1484.68 ± 2.9 kg/m3 | mass density (300.15 K, 19750 kPa): 1488.07 ± 3.1 kg/m3 | mass density (300.15 K, 25860 kPa): 1492.27 ± 3.2 kg/m3 | mass density (300.15 K, 31480 kPa): 1496.03 ± 3.4 kg/m3 | mass density (300.15 K, 37770 kPa): 1500.11 ± 3.6 kg/m3 | mass density (300.15 K, 44170 kPa): 1504.13 ± 3.8 kg/m3 | mass density (300.15 K, 50750 kPa): 1508.14 ± 4 kg/m3 | mass density (300.15 K, 59590 kPa): 1513.35 ± 4.2 kg/m3 | mass density (301.15 K, 100 kPa): 1472.79 ± 2.5 kg/m3 | mass density (301.15 K, 1830 kPa): 1474.07 ± 2.6 kg/m3 | mass density (301.15 K, 10020 kPa): 1480.19 ± 2.8 kg/m3 | mass density (301.15 K, 14980 kPa): 1483.74 ± 2.9 kg/m3 | mass density (301.15 K, 19750 kPa): 1487.1 ± 3.1 kg/m3 | mass density (301.15 K, 25860 kPa): 1491.35 ± 3.2 kg/m3 | mass density (301.15 K, 31480 kPa): 1495.08 ± 3.4 kg/m3 | mass density (301.15 K, 37770 kPa): 1499.16 ± 3.6 kg/m3 | mass density (301.15 K, 44170 kPa): 1503.18 ± 3.8 kg/m3 | mass density (301.15 K, 50750 kPa): 1507.27 ± 4 kg/m3 | mass density (301.15 K, 59590 kPa): 1512.51 ± 4.2 kg/m3 | mass density (302.15 K, 100 kPa): 1471.92 ± 2.5 kg/m3 | mass density (302.15 K, 1830 kPa): 1473.15 ± 2.6 kg/m3 | mass density (302.15 K, 10020 kPa): 1479.27 ± 2.8 kg/m3 | mass density (302.15 K, 14980 kPa): 1482.84 ± 2.9 kg/m3 | mass density (302.15 K, 19750 kPa): 1486.21 ± 3.1 kg/m3 | mass density (302.15 K, 25860 kPa): 1490.42 ± 3.2 kg/m3 | mass density (302.15 K, 31480 kPa): 1494.19 ± 3.4 kg/m3 | mass density (302.15 K, 37770 kPa): 1498.29 ± 3.6 kg/m3 | mass density (302.15 K, 44170 kPa): 1502.37 ± 3.8 kg/m3 | mass density (302.15 K, 50750 kPa): 1506.46 ± 3.9 kg/m3 | mass density (302.15 K, 59590 kPa): 1511.74 ± 4.2 kg/m3 | mass density (303.15 K, 100 kPa): 1471.14 ± 2.5 kg/m3 | mass density (303.15 K, 1830 kPa): 1472.39 ± 2.6 kg/m3 | mass density (303.15 K, 10020 kPa): 1478.49 ± 2.8 kg/m3 | mass density (303.15 K, 14980 kPa): 1482 ± 2.9 kg/m3 | mass density (303.15 K, 19750 kPa): 1485.41 ± 3.1 kg/m3 | mass density (303.15 K, 25860 kPa): 1489.57 ± 3.2 kg/m3 | mass density (303.15 K, 31480 kPa): 1493.32 ± 3.4 kg/m3 | mass density (303.15 K, 37770 kPa): 1497.43 ± 3.6 kg/m3 | mass density (303.15 K, 44170 kPa): 1501.5 ± 3.8 kg/m3 | mass density (303.15 K, 50750 kPa): 1505.6 ± 3.9 kg/m3 | mass density (303.15 K, 59590 kPa): 1510.93 ± 4.2 kg/m3 | mass density (308.15 K, 100 kPa): 1466.83 ± 2.5 kg/m3 | speed of sound (308.15 K, 500 kPa): 1214 ± 3.1 m/s | mass density (308.15 K, 1830 kPa): 1468.1 ± 2.6 kg/m3 | speed of sound (308.15 K, 3500 kPa): 1224.4 ± 3.1 m/s | speed of sound (308.15 K, 7000 kPa): 1236.2 ± 3.1 m/s | speed of sound (308.15 K, 10000 kPa): 1246.2 ± 3.1 m/s | mass density (308.15 K, 10020 kPa): 1474.12 ± 2.8 kg/m3 | speed of sound (308.15 K, 13500 kPa): 1257.6 ± 3.1 m/s | mass density (308.15 K, 14980 kPa): 1477.65 ± 2.9 kg/m3 | speed of sound (308.15 K, 17000 kPa): 1268.6 ± 3.1 m/s | mass density (308.15 K, 19750 kPa): 1480.89 ± 3 kg/m3 | speed of sound (308.15 K, 20000 kPa): 1278 ± 3.1 m/s | mass density (308.15 K, 25860 kPa): 1485.18 ± 3.2 kg/m3 | speed of sound (308.15 K, 30000 kPa): 1308.6 ± 3.2 m/s | mass density (308.15 K, 31480 kPa): 1489 ± 3.4 kg/m3 | mass density (308.15 K, 37770 kPa): 1493.05 ± 3.5 kg/m3 | speed of sound (308.15 K, 40000 kPa): 1337.1 ± 3.2 m/s | mass density (308.15 K, 44170 kPa): 1497.15 ± 3.7 kg/m3 | speed of sound (308.15 K, 50000 kPa): 1364.7 ± 3.2 m/s | mass density (308.15 K, 50750 kPa): 1501.36 ± 3.9 kg/m3 | mass density (308.15 K, 59590 kPa): 1506.81 ± 4.2 kg/m3 | speed of sound (308.15 K, 60000 kPa): 1391 ± 3.2 m/s | speed of sound (308.15 K, 70000 kPa): 1416.2 ± 3.2 m/s | speed of sound (308.15 K, 80000 kPa): 1440.3 ± 3.2 m/s | speed of sound (308.15 K, 90000 kPa): 1463.7 ± 3.2 m/s | speed of sound (308.15 K, 100000 kPa): 1486.4 ± 3.2 m/s | speed of sound (308.15 K, 112500 kPa): 1513.6 ± 3.2 m/s | speed of sound (308.15 K, 125000 kPa): 1539.9 ± 3.2 m/s | speed of sound (308.15 K, 137510 kPa): 1565.2 ± 3.2 m/s | speed of sound (308.15 K, 150000 kPa): 1589.6 ± 3.2 m/s | speed of sound (308.15 K, 162500 kPa): 1613.3 ± 3.2 m/s | speed of sound (308.15 K, 175000 kPa): 1636.3 ± 3.2 m/s | speed of sound (308.15 K, 187500 kPa): 1658.6 ± 3.2 m/s | speed of sound (308.15 K, 200000 kPa): 1680.4 ± 3.2 m/s | mass density (313.15 K, 100 kPa): 1462.07 ± 2.5 kg/m3 | mass density (313.15 K, 1830 kPa): 1463.28 ± 2.5 kg/m3 | mass density (313.15 K, 10020 kPa): 1469.31 ± 2.8 kg/m3 | mass density (313.15 K, 14980 kPa): 1472.86 ± 2.9 kg/m3 | mass density (313.15 K, 19750 kPa): 1476.15 ± 3 kg/m3 | mass density (313.15 K, 25860 kPa): 1480.43 ± 3.2 kg/m3 | mass density (313.15 K, 31480 kPa): 1484.36 ± 3.3 kg/m3 | mass density (313.15 K, 37770 kPa): 1488.4 ± 3.5 kg/m3 | mass density (313.15 K, 44170 kPa): 1492.56 ± 3.7 kg/m3 | mass density (313.15 K, 50750 kPa): 1496.83 ± 3.9 kg/m3 | mass density (313.15 K, 59590 kPa): 1502.49 ± 4.1 kg/m3 | mass density (318.15 K, 100 kPa): 1457.05 ± 2.5 kg/m3 | speed of sound (318.15 K, 500 kPa): 1192.3 ± 3.1 m/s | mass density (318.15 K, 1830 kPa): 1458.31 ± 2.5 kg/m3 | speed of sound (318.15 K, 3500 kPa): 1202.9 ± 3.1 m/s | speed of sound (318.15 K, 7000 kPa): 1215 ± 3.1 m/s
